According to ChEMBL document CHEMBL5212743, “Selectivity Literature for EUbOPEN Chemogenomics Library wave 3” (2023):
Each block holds one molecule with its values, some of them ahead of it.

Tests used:
[1] = target: Alpha-2B adrenergic receptor (Homo sapiens, UniProt P18089); experiment: Selectivity interaction (GPCR panel (PDSP screen)) EUB0000309b ADRA2B
[2] = target: T1, Histamine H1 receptor (Homo sapiens, UniProt P35367); experiment: (§1) Selectivity interaction (GPCR panel (PDSP screen)) EUB0000348aPTSA HRH1; conditions: at 10 µM
T1 sequence (P35367 whole entry): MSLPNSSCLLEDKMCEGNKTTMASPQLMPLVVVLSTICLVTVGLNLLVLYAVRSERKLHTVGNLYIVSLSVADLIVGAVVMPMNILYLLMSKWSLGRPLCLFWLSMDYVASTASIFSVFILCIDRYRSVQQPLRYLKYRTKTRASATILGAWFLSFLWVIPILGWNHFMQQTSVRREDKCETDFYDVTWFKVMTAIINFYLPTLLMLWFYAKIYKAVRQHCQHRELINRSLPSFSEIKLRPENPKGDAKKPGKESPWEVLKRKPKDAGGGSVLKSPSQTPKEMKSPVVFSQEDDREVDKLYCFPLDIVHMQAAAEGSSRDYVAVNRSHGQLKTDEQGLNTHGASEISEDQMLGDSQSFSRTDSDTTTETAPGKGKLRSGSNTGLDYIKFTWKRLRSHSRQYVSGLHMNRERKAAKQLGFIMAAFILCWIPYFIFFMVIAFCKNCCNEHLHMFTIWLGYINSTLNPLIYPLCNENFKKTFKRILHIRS

[3] = target: T1, Histamine H1 receptor; experiment: as §1
[4] = target: Delta-type opioid receptor (Homo sapiens) (UniProt P41143); experiment: Selectivity interaction (CEREP panel (Eurofins, receptors, ion channels, and other enzymes)) EUB0000348aPTSA OPRD1; conditions: at 10 µM
[5] = target: Cyclin-dependent kinase 5 (Homo sapiens) (UniProt Q00535); experiment: Selectivity interaction (KinomeScan (DiscoverX)) EUB0000348aPTSA CDK5; conditions: at 1 µM
Chain of Cyclin-dependent kinase 5 (Homo sapiens) (Q00535 whole entry, looked up): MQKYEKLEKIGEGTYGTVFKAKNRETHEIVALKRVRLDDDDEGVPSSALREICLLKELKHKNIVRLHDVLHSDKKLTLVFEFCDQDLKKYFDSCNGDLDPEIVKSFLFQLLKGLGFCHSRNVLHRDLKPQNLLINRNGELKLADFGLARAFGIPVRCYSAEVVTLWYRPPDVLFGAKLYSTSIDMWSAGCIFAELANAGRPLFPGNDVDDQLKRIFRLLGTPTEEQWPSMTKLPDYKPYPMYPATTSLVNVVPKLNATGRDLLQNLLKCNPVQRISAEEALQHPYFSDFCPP

[6] = target: Dual specificity protein kinase CLK4 (Homo sapiens) (UniProt Q9HAZ1); experiment: Selectivity interaction (KinomeScan (DiscoverX)) EUB0000348aPTSA CLK4; conditions: at 1 µM
[7] = target: T2, Mitogen-activated protein kinase kinase kinase 13 (Homo sapiens) (UniProt O43283); experiment: Selectivity interaction (KinomeScan (DiscoverX)) EUB0000348aPTSA MAP3K13; conditions: at 1 µM
T2 sequence (whole entry): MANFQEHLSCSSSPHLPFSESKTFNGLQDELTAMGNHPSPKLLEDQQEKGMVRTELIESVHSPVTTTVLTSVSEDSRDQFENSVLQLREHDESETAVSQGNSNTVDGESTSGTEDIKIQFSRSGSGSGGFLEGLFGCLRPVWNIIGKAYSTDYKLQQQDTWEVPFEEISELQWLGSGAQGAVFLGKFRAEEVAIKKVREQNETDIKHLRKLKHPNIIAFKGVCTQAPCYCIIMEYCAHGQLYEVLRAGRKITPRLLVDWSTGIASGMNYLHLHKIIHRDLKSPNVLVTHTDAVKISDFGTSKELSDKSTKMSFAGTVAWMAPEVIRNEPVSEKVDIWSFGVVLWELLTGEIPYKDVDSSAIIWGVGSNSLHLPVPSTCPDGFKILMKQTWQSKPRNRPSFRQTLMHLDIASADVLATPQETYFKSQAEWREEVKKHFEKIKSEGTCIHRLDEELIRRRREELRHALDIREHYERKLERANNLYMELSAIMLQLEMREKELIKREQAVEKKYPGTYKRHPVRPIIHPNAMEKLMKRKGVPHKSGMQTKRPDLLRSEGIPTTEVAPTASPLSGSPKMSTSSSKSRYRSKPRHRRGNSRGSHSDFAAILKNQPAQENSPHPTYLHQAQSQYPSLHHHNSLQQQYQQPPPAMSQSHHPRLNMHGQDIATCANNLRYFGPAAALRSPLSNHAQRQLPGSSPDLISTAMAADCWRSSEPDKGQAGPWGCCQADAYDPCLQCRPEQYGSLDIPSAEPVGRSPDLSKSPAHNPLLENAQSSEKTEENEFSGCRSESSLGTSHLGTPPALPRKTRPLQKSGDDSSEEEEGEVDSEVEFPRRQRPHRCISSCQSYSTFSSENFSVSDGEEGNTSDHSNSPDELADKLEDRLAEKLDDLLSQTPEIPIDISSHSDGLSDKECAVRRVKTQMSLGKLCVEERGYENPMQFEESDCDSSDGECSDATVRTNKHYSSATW

[8] = target: Endothelin receptor type B (Homo sapiens) (UniProt P24530); conditions: at 10 µM
[9] = target: 5-hydroxytryptamine receptor 2B (Homo sapiens, UniProt P41595); experiment: Selectivity interaction (GPCR panel (PDSP screen)) EUB0000748a HTR2B
[10] = target: T3, Sigma non-opioid intracellular receptor 1 (Homo sapiens, UniProt Q99720); experiment: Selectivity interaction (GPCR panel (PDSP screen)) EUB0000748a SIGMAR1
T3 sequence (Q99720 whole entry): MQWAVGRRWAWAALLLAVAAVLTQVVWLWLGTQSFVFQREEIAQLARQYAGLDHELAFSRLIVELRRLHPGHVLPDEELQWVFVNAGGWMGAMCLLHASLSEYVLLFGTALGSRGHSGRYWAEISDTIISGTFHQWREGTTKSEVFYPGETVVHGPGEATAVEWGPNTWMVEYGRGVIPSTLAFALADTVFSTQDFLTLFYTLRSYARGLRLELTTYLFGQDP

[11] = target: T4, Gamma-aminobutyric acid receptor subunit alpha-1 (Homo sapiens, UniProt P14867); experiment: Selectivity interaction (GPCR panel (PDSP screen)) EUB0000547a GABRA1
T4 sequence (P14867 whole entry): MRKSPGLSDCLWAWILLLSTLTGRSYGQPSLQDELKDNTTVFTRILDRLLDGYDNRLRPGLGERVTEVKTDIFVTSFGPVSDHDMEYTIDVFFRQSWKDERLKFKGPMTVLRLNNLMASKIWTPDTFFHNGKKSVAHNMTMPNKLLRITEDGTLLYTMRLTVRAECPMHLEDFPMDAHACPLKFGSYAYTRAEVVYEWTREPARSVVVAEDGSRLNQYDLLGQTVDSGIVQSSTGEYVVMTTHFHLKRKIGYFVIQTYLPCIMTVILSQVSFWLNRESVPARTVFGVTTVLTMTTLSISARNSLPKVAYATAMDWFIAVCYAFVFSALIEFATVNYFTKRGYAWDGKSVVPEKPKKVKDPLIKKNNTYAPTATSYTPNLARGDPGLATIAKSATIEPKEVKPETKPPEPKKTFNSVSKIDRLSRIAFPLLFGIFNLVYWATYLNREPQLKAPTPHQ

[12] = target: Tyrosine-protein kinase ZAP-70 (Homo sapiens) (UniProt P43403); experiment: Selectivity interaction (KinomeScan (DiscoverX)) EUB0000547a ZAP70; conditions: at 1 µM
[13] = target: T2, Mitogen-activated protein kinase kinase kinase 13 (Homo sapiens); experiment: Selectivity interaction (KinomeScan (DiscoverX)) EUB0000547a MAP3K13; conditions: at 1 µM
[14] = target: T3, Sigma non-opioid intracellular receptor 1; experiment: Selectivity interaction (GPCR panel (PDSP screen)) EUB0000289bCl SIGMAR1
[15] = target: Receptor tyrosine-protein kinase erbB-2 (Homo sapiens) (UniProt P04626); experiment: Selectivity interaction (KinomeScan (DiscoverX)) EUB0000638a ERBB2; conditions: at 1 µM
Chain of Receptor tyrosine-protein kinase erbB-2 (Homo sapiens) (P04626 whole entry): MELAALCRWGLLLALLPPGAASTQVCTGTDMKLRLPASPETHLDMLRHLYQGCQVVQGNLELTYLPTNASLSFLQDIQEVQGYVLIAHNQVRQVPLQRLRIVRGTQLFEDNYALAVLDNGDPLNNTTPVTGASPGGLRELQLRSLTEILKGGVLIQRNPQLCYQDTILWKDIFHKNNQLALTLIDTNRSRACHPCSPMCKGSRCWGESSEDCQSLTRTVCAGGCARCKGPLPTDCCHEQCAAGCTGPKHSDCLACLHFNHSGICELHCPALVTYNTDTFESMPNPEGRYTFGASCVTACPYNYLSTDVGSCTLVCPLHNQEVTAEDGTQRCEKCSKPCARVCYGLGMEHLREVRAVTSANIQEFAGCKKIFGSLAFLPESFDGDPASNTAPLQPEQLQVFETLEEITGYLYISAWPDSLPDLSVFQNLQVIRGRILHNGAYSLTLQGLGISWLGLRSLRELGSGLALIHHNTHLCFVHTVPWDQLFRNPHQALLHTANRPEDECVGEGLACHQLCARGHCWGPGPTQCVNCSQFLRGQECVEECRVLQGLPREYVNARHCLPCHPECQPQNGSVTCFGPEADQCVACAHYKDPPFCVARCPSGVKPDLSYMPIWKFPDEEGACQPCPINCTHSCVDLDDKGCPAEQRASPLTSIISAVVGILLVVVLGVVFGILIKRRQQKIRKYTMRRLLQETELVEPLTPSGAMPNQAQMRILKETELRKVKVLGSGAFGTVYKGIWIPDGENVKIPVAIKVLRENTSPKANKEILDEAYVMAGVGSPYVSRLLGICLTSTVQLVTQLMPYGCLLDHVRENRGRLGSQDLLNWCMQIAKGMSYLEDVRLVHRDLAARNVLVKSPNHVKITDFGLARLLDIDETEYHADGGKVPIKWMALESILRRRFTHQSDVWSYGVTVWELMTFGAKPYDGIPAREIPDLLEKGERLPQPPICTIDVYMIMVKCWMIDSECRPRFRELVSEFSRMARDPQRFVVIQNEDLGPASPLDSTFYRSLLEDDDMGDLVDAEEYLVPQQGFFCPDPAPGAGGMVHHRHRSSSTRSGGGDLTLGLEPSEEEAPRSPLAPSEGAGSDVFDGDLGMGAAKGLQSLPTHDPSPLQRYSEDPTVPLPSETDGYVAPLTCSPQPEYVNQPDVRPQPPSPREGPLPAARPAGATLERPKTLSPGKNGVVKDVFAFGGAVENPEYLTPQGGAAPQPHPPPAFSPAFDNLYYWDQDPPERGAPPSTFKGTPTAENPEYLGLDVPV

[16] = target: Receptor tyrosine-protein kinase erbB-4 (Homo sapiens) (UniProt Q15303); experiment: Selectivity interaction (KinomeScan (DiscoverX)) EUB0000638a ERBB4; conditions: at 1 µM
Chain of Receptor tyrosine-protein kinase erbB-4 (Homo sapiens) (Q15303 whole entry): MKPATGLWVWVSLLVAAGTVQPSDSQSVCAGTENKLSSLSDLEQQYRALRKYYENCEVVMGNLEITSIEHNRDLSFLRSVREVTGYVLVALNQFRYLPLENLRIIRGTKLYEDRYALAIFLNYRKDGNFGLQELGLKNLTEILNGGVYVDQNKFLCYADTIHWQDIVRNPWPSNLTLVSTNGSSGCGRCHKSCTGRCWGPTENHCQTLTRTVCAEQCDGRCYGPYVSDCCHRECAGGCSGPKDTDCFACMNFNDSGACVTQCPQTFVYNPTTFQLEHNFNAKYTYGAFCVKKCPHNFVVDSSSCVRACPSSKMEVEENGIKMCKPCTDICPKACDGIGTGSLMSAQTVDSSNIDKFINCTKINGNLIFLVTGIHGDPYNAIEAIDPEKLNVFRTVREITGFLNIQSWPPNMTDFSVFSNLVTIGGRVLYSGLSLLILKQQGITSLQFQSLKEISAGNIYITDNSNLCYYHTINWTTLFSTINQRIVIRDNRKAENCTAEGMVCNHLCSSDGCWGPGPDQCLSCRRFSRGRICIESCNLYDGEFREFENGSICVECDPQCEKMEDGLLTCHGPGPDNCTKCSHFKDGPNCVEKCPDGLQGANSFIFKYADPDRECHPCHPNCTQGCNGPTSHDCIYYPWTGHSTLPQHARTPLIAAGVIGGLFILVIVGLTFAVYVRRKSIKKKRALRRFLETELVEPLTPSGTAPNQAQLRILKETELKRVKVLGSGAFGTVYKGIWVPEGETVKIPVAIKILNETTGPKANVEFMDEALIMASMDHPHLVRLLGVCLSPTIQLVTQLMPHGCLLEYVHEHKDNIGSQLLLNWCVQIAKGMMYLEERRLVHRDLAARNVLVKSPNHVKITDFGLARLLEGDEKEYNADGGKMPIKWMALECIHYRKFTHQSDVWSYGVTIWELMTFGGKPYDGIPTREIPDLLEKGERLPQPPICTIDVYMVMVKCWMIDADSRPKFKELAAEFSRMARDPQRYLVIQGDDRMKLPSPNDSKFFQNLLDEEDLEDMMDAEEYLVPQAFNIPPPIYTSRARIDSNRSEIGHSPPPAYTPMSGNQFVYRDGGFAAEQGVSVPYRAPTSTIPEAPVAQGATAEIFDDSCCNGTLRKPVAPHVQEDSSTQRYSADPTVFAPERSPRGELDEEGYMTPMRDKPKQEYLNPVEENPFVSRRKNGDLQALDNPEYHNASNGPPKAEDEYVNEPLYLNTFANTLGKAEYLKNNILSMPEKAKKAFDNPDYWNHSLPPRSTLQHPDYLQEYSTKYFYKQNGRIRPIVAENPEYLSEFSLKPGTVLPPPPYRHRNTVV

[17] = target: Tyrosine-protein kinase Blk (Homo sapiens, UniProt P51451); experiment: Selectivity interaction (Z’-LYTE assay) EUB0000638a BLK
[18] = target: Tyrosine-protein kinase Fgr (Homo sapiens, UniProt P09769); experiment: Selectivity interaction (Z’-LYTE assay) EUB0000638a FGR
[19] = target: Tyrosine-protein kinase Fyn (Homo sapiens, UniProt P06241); experiment: Selectivity interaction (Z’-LYTE assay) EUB0000638a FYN
[20] = target: Tyrosine-protein kinase HCK (Homo sapiens, UniProt P08631); experiment: Selectivity interaction (Z’-LYTE assay) EUB0000638a HCK
[21] = target: Tyrosine-protein kinase Lck (Homo sapiens, UniProt P06239); experiment: Selectivity interaction (Z’-LYTE assay) EUB0000638a LCK
[22] = target: Tyrosine-protein kinase Lyn (Homo sapiens, UniProt P07948); experiment: Selectivity interaction (Z’-LYTE assay) EUB0000638a LYN
[23] = target: Proto-oncogene tyrosine-protein kinase Src (Homo sapiens, UniProt P12931); experiment: Selectivity interaction (Z’-LYTE assay) EUB0000638a SRC
[24] = target: Tyrosine-protein kinase Yes (Homo sapiens, UniProt P07947); experiment: Selectivity interaction (Z’-LYTE assay) EUB0000638a YES1
[25] = target: Tyrosine-protein kinase Tec (Homo sapiens) (UniProt P42680); conditions: at 1 µM
[26] = target: T1, Histamine H1 receptor; experiment: Selectivity interaction (GPCR panel (PDSP screen)) EUB0000289c HRH1
[27] = target: Serine/threonine-protein kinase BRSK2 (Homo sapiens, UniProt Q8IWQ3); experiment: Selectivity interaction (KinomeScan (DiscoverX, competition-binding assay)) EUB0000289c BRSK2
[28] = target: Serine/threonine-protein kinase BRSK2 (Homo sapiens) (UniProt Q8IWQ3); experiment: Selectivity interaction (KinomeScan (DiscoverX)) EUB0000289c BRSK2; conditions: at 1 µM
[29] = target: T5, Serine/threonine-protein kinase Nek7 (Homo sapiens, UniProt Q8TDX7); experiment: Selectivity interaction (KinomeScan (DiscoverX, competition-binding assay)) EUB0000289c NEK7
[30] = target: T5, Serine/threonine-protein kinase Nek7; experiment: Selectivity interaction (KinomeScan (DiscoverX)) EUB0000289c NEK7; conditions: at 1 µM
[31] = target: Lysosomal Pro-X carboxypeptidase (Homo sapiens) (UniProt P42785); experiment: Selectivity interaction (CEREP panel (Eurofins, panel of ion channels, receptors, GPCRs, and enzymes (ligand binding assay))) EUB0000289c PRCP; conditions: at 3 µM
[32] = target: Ephrin type-A receptor 1 (Homo sapiens, UniProt P21709); experiment: Selectivity interaction (KinomeScan (DiscoverX, competition-binding assay)) EUB0000289c EPHA1
Chain of Ephrin type-A receptor 1 (P21709 whole entry): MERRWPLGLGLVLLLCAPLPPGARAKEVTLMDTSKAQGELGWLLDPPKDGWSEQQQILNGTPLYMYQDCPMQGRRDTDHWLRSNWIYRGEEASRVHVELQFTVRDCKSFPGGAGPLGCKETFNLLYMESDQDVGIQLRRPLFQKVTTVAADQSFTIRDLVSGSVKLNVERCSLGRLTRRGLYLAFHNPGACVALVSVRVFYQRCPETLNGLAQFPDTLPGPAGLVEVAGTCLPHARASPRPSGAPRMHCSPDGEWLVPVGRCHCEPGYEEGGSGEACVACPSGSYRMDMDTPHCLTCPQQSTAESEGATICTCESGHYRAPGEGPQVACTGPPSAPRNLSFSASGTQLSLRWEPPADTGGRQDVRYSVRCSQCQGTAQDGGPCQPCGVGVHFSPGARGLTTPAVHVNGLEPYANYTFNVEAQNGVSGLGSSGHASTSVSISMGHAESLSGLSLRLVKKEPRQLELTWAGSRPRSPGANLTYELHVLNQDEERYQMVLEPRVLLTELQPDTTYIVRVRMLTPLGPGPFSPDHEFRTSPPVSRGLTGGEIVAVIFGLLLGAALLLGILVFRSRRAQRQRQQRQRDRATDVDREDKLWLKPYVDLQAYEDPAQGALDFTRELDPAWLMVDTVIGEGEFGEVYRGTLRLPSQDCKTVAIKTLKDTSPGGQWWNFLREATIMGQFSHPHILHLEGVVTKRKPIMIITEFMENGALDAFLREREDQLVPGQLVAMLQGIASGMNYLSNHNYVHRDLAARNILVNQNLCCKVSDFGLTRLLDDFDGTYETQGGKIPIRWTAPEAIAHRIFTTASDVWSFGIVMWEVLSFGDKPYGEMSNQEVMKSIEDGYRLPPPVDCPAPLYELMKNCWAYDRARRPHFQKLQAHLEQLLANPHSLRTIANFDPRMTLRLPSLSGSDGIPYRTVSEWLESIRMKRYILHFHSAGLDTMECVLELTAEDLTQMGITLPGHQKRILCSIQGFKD

[33] = target: Ephrin type-A receptor 1 (Homo sapiens) (UniProt P21709); experiment: Selectivity interaction (KinomeScan (DiscoverX)) EUB0000289c EPHA1; conditions: at 1 µM
Chain of Ephrin type-A receptor 1 (Homo sapiens) (P21709 whole entry): as above

[34] = target: G protein-coupled receptor kinase 3 (Homo sapiens, UniProt P35626); experiment: Selectivity interaction (KinomeScan (DiscoverX, competition-binding assay)) EUB0000289c ADRBK2
[35] = target: T6, G protein-coupled receptor kinase 3 (Homo sapiens) (UniProt P35626); experiment: Selectivity interaction (KinomeScan (DiscoverX)) EUB0000289c ADRBK2; conditions: at 1 µM
T6 sequence (whole entry): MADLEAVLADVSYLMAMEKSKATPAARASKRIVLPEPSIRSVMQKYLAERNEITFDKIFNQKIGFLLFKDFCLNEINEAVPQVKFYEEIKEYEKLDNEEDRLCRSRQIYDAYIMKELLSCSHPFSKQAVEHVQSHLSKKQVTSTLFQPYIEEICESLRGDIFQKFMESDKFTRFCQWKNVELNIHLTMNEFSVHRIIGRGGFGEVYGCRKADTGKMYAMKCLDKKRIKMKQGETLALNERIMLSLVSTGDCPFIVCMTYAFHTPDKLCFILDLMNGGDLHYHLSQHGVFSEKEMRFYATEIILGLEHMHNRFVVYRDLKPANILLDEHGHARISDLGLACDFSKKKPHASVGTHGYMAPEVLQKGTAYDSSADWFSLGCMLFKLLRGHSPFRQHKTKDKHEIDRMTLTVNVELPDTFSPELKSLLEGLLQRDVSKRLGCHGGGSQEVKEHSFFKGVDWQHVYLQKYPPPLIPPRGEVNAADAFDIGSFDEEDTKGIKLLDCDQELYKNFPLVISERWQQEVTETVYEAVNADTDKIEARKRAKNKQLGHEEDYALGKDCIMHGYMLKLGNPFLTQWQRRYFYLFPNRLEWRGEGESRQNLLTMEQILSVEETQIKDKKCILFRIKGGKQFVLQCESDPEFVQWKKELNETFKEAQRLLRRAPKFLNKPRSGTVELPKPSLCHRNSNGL

Chain of Alpha-2B adrenergic receptor (P18089 whole entry): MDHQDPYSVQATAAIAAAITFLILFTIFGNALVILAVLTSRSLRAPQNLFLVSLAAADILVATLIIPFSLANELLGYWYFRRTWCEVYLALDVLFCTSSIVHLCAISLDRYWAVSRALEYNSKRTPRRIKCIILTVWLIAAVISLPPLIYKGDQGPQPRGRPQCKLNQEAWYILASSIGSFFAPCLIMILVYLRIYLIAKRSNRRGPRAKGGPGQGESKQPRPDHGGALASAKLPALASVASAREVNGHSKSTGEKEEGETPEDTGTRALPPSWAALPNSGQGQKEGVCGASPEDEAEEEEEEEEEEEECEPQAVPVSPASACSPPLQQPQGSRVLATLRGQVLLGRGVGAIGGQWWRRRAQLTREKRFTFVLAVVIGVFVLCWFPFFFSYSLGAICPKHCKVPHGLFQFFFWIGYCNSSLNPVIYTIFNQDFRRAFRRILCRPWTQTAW

Structure (SMILES): CCCCN(CCCC)C(=O)CN1C[C@H](c2cc(OC)c3c(c2)OCO3)[C@@H](C(=O)O)[C@@H]1CC(C)(C)CCC
% of inhibition [2]: 54% | Ki [3]: > 10 µM | % of inhibition [4]: 62% | % of control [5]: 0% | % of control [6]: 0% | % of control [7]: 0% | % of inhibition [8]: 56%

Structure (SMILES): Cn1c(-c2csc(C3CCN(CC4=NC5N=CC=CC5N4)CC3)n2)nc2ccccc21 (stereo not given) [BAY-070]
Ki [9]: 1.53 µM | Ki [10]: 1.27 µM

Structure (SMILES): CCC(=N\O)/C(C)=C/c1ccc(F)c(C)c1 [A-226]
Ki [11]: 3.69 µM | % of control [12]: 38% | % of control [13]: 23%

Structure (SMILES): CCCCN(CCCC)C(=O)CN1C[C@@H](c2cc(OC)c3c(c2)OCO3)[C@H](C(=O)O)[C@H]1CC(C)(C)CCC
Ki [14]: 0.289 µM

Structure (SMILES): Cn1cncc1[C@](O)(COc1ccc(C#N)cc1-c1ccc(OC(F)(F)F)cc1)c1ccc(C#N)cc1 [ABT-100]
Ki [26]: > 10 µM | Kd [27]: > 10 µM | % of control [28]: 48% | Kd [29]: > 10 µM | % of control [30]: 46% | % of inhibition [31]: 97% | Kd [32]: > 10 µM | % of control [33]: 38% | Kd [34]: > 10 µM | % of control [35]: 48%

More lines, now with the values ahead:

Ki [1]: 4.58 µM
Structure (SMILES): NS(=O)(=O)c1cc(NC(=O)Cc2ccccc2)ccc1Oc1cccc(Cl)c1 [BAY-1797]

% of control [15]: 2.1% | % of control [16]: 4.3% | IC50 [17]: > 10 µM | IC50 [18]: > 10 µM | IC50 [19]: > 10 µM | IC50 [20]: > 10 µM | IC50 [21]: > 10 µM | IC50 [22]: > 10 µM | IC50 [23]: > 10 µM | IC50 [24]: > 10 µM | % of control [25]: 6.4%
Structure (SMILES): CC#CC(=O)N1CCC[C@H]1c1nc(-c2ccc(C(=O)Nc3ccccn3)cc2)c2c(N)nccn12 [ACALABRUTINIB]
